Consider 5 compounds from US9944989B2, “Micrornas as new therapeutic targets for the prevention and/or treatment of retinopathy” (RUSH UNIVERSITY MEDICAL CENTER, priority 2010, dated 2018).

In one series the test system is miRNAs in the vitreous. Nature of the series: miRNA expression profiling (TaqMan rodent miRNA microarray) of the vitreous of STZ-induced diabetic and normal control rats. The arrangement: species or system rat. To be noted: two weeks after the onset of diabetes, average delta Ct. The procedure: Isolation of vitreous RNA from STZ-induced diabetic and normal control rats: 2 weeks after STZ-induced diabetes, 3 diabetic and 3 normal control rats were sacrificed and their eyeballs harvested. In cold PBS, the eyeballs were dissected to collect the vitreous bodies, the retinas and the lens, total RNA was prepared using the mirVana miRNA isolation kit (Ambion). The yield of total RNA from vitreous body was ˜764 ng and 1125 ng total RNA/vitreous of control and diabetic rats, respectively. […]
miRNA microarray assays and data analyses. […] Three independent sets of miRNA profiling were performed for each experimental condition Amplification data were created by the SDS2.3 program (Applied Biosystems) and further analyzed using RQ Manager software (Applied Biosystems) and StatMiner v. […] There were three replicate assays for each miRNA on the array. miRNAs with Ct<40 in at least two out of the three replicates were accepted as “detected”. […] Normalized expression level of each miRNA was calculated as DCt or ΔCt=Ct(miRNA)-Ct(snRNA U6). The average DCt from three microarray assays was calculated as the relative expression level of each miRNA. The differential expression of each miRNA from samples of diabetic rats and normal controls was calculated as: DDCt or Δ(ΔCt)=Ave DCt (diabetic)—Ave DCt (control). Fold of change was calculated as 2^−Δ(ΔCt). […]
In general terms: Real-time PCR tracks product formation cycle by cycle.

Series [1] relates to NF-κB. In words: miR-146a expression (qRT-PCR) in rat RECs (TR-iBRB2) treated with IL-1β or TNFα, with or without Bay11-7082. In kind it is cell-based. To be noted: for miR-146a expression: rat RECs (TR-iBRB2), 10 ng/ml, four hours and 24 hours after treatment. The procedure:
In diabetic retinas, hyperglycemia-induced increased production of ROS and proinflammatory cytokines work in concert to activate NF-κB in RECs. Both IL-1β and TNF-α are shown to activate NF-κB in RECs. Upregulation of miR-146a is a result of NF-κB activation. Rat RECs (the TR-iBRB2 cells) were treated with IL-1β (10 ng/ml) and TNF-α (10 ng/ml). […] The extent of upregulation of miR-146a was further increased from 4-hour to 24-hour treatments. […] It is noteworthy that there is a moderate, but significant increased expression of miR-146a by IL-1β in the presence of Bay11-7082, compared to non-treated negative controls.
Quantitative (q)RT-PCR. qRT-PCR analysis of miRNAs was performed using TaqMan microRNA Assays according to the manufacturer's protocol (Applied Biosystems). Approximately 8 ng of total RNA was used for each reaction. snRNA U6 was used for normalization control. qRT-PCR analysis on mRNAs of IRAK1, TRAF6, ICAM-1, and MCP-1 was performed using the QuantiTect Primer Assay with QuantiFast SYBR Green RT-PCR Kit (Qiagen, Valencia, Calif.) ˜10 ng total RNA was used in each reaction. 18S rRNA was amplified as normalization control. All data are expressed as mean±SEM. Student's t-test was used to determine significance (p<0.05).
(§1) Rat REC culture and treatment with proinflammatory factors. Rat RECs—the Transgenic-inner Blood-Retinal Barrier (Tr-iBRB) cells were kindly provided by Drs. Tetsuya Terasaki, Tohoku University, and Ken-ichi Hosoya, University of Toyama, Japan. The Tr-iBRB cells were derived from RECs of transgenic rats harboring the temperature-sensitive SV40 large T-antigen (tsA58Tg rats). At 33° C., they are immortalized and proliferate because of the expression of large T-antigen. At 37° C., they stop proliferation due to loss of large T-antigen and differentiate into authentic retinal ECs, which have spindle fiber shapes, with typical endothelial and REC-specific markers and endothelial properties and REC-specific functions. iTr-iBRB cells were expanded at 33° C. on collagen-coated (50 μg/ml) plates in complete EC culture medium (DMEM with 70 mg/L benzylpenicillin potassium, 100 mg/L streptomycin sulfate, 10% heat-inactivated FBS and endothelial-cell growth factor (ECGF) (1:100, Sigma). Glucose concentration in the medium was 5.5 mM. Approximately 100,000 cells/60 mm plate were grown in complete medium at 37° C. for 48 hours. Cells were serum starved in DMEM+0.2% FBS for 16 hours before treatment of IL-1β (10 ng/ml, Sigma), TNFα (10 ng/ml, Sigma), or NF-κB inhibitor, Bay11-7082 (3 μM. Calbiochem) for 4 or 24 hours. Subsequently, the cells were harvested for total RNA, protein lysate preparation, or immunofluorescence.

For a further series, the system named is NF-κB p65. Nature of the series: NF-κB activation by immunofluorescence of p65 subunit in rat RECs. In kind it is cell-based. To be noted: IL-1β or TNFα 10 ng/ml, 30 minutes after treatment. The procedure:
as §1
Detection of NF-κB activation by immunofluorescence of p65 subunit. 30 min following cytokine treatment, cells were fixed with 4% paraformaldehyde for 20 min. After blocking with 10% normal donkey serum (NDS) in PBS for 1 hour at room temperature, cells were incubated with anti-p65 antibody (Santa Cruz) at 4° C. overnight. Cells were incubated in Alexa fluor-conjugated secondary antibody (1:400) in 3% NDS. Nuclei of the cells were labeled with Hoechst nuclear dye (1:500). Subsequently, the cells were observed under an Axioplan2 fluorescent microscope (Zeiss).

Series [2] has as its system human retinal endothelial cells (HRECs). Nature of the series: Transendothelial electrical resistance (TEER) assay in HRECs. In kind it is cell-based. Here is the method: Transendothelial electrical resistance assay: ECs are grown as a monolayer on small gold electrodes. The transendothelial electrical resistance, which reflects endothelial barrier function and permeability, is measured using the Electric Cell-Substrate Impedance Sensor (ECIS) system.
Transendothelial electrical resistance (TEER) assay. HRECs were plated and grew as a monolayer on fibronectin-coated Electric Cell-Substrate Impedance Sensor (ECIS) electrode arrays (Applied Biophysics). 24 hours after transfection with miR-146a mimics, or negative control oligo duplex with scrambled sequences, the cells were treated with IL-1β (10 ng/ml). TEER was recorded for 20 hours before and 24 hours after addition of IL-1β using the ECIS system (Applied Biophysics) (Qiao et al., 2003, 2006; Lum et al., 2003, 2001). When Bay11-7082 was used, HRECs was incubated with Bay11-7082 ([…]) (Sigma) for 30 minutes prior to IL-1β treatment.

Series [3] relates to NF-κB. In words: Thrombin-induced miR-146a/b expression (qRT-PCR) in HRECs, with or without Bay11-7082. The class given is cell-based, human. From the text: miR-146 is a NF-κB-responsive miRNA, and can be induced by IL-1R/TLR mediated NF-κB activation. GPCR-mediated NF-κB activation also induces the expression of miR-146.
Upregulation of miR-146a/b by thrombin treatment is a result of NF-κB activation.
(§2) Cell culture and treatment. Primary Human Retinal Endothelial Cells (HRECs) (Passage 3-6) and HEK293 cells were purchased from Applied Cell Biology Res Institute (Kirkland, Wash.) and American Type Culture Collection (ATCC), respectively. HRECs were maintained in EGM2-MV media with 5% of FBS (Lonza) in flasks coated with attachment factor (Invitrogen) or plates coated with fibronectin (Sigma). For thrombin treatment, HRECs were serum starved in EGM2-MV media with 1% FBS overnight, and then treated with thrombin (5 U/ml) (Sigma. Cat. T4393) for 5-8 hours, followed by RNA harvesting, leukocyte adhesion and other assays; for IL-1β treatment, after overnight serum starvation, HRECs was incubated with 10 ng/ml IL-1β (Sigma) for 4 hours. When NF-κB specific inhibitor Bay11-7082 was used, HRECs was incubated with Bay11-7082 (3 μM) (Sigma) for 30 minutes prior to treatment with either thrombin or IL-1β.
RNA preparation and quantitative RT-PCR. Total RNA was prepared using miRVana miRNA isolation kit (Ambion) (Kovacs et al., 2011). qRT-PCR of miRNAs was performed using TaqMan microRNA Assays (Applied Biosystems), with snRNA U6 as normalization control. qRT-PCR of mRNAs of was performed using QuantiTect Primer Assays and QuantiFast SYBR Green RT-PCR Kit (Qiagen), with 18s rRNA as normalization control. Two tailed t test was used to determine significance of differences.

Another series relates to HRECs. In words: Leukocyte adhesion to HRECs. In kind it is cell-based, human. To be noted: scrambled control-treated HRECs, thrombin treatment. Here is the method: Leukocyte adhesion to HRECs. Leukocyte adhesion assays were performed (Huang et al., 2007; O'Donnell, 2011) with minor modifications. Briefly, blood from healthy human volunteers was collected according to a approved IRB protocol to isolate leukocytes. Leukocytes were labeled with 5 μM Calcein/acetomethoxy (AM) (Invitrogen). HRECs were transfected with miR-146a mimics or negative control oligo duplex with scrambled sequences for 48 hours before thrombin treatment (5 U/ml). Eight hours after thrombin treatment, 10^5 calcein-labeled leukocytes were added onto the HREC monolayer and incubated for 2 hours at 37 C. Subsequently, the cells were gently rinsed with PBS to wash off leukocytes unattached to HRECs; the number of Calcein-AM labeled neutrophils attached to HRECs were counted by fluorescence microscopy. In addition, the fluorescence from the adherent leukocytes on HRECs was measured with a Cytofluor plate reader (PreSeptive Biosystems).

For a further series, the system named is NF-κB activation. In words: Thrombin-induced NF-κB downstream genes (ICAM-1, VCAM-1, MCP1) by qRT-PCR in HRECs. In kind it is cell-based, human. To be noted: thrombin treatment. Here is the method: Thrombin-dependent NF-κB activation is mediated by the CARD10-Bc110-MALT1 signalosome. If miR-146 targets CARD10, one of the key components of the signalosome of the GPCR-mediated NF-κB activation pathway, miR-146 should have an inhibitory effect on GPCR-mediated NF-κB activation in HRECs. HRECs were transfected with miR-146a mimic or negative control oligos with scrambled sequences; 24 hour after the transfection, the cells were treated with thrombin.
To determine whether miR-146's inhibition on thrombin-mediated NF-κB activation is mediated by its repression on CARD10, HRECs were transfected with human CARD10-expressing constructs (Genecopoeia) before miR-146a mimic transfection and thrombin treatment.
as §2
miR-146a mimic, anti-miR-146a and plasmid transfection. […]
RNA preparation and quantitative RT-PCR. Total RNA was prepared using miRVana miRNA isolation kit (Ambion) (Kovacs et al., 2011). qRT-PCR of miRNAs was performed using TaqMan microRNA Assays (Applied Biosystems), with snRNA U6 as normalization control. qRT-PCR of mRNAs of was performed using QuantiTect Primer Assays and QuantiFast SYBR Green RT-PCR Kit (Qiagen), with 18s rRNA as normalization control. […]

Where [4] appears, read: Bay11-7082 3 μM for 30 minutes prior to thrombin.
Setting [5] is: HRECs treated with scrambled oligo.

Consider “mmu-miR-30c (UGUAAACAUCCUACACUCUCAGC; chemistry not fully specified)”, for which the “AVE DCt (STZ)” value with miRNAs in the vitreous is listed as 2.37.
In the case of “IL-1β: proinflammatory cytokine used at 10 ng/ml to activate NF-κB”, in the series with NF-κB [1], the miR-146a expression entry is recorded as “significantly upregulated”. Also, the “NF-κB activation (nuclear translocation of p65)” value (“NF-κB activation” for short) in the series with NF-κB p65 is reported as “activated NF-κb”. Besides, the TEER result in series [2] (IL-1β treatment) was “significant decrease”.
Turning to `Cc1ccc(S(=O)(=O)/C=C/C#N)cc1` [Bay11-7082], the “decrease of IL-1β-induced upregulation of miR-146a” value with NF-κB [1] (rat RECs, IL-1β 10 ng/ml, simultaneous Bay11-7082) is reported as around 81%. The “TNF-α-induced upregulation of miR-146a” value in the series on NF-κB [1] (rat RECs, TNF-α 10 ng/ml, simultaneous Bay11-7082) is “completely blocked”. Moreover, the “NF-κB activation” value with NF-κB p65 is reported as “failed to activate NF-κB”. Also, in series [2] (IL-1β 10 ng/ml), the “IL-1β-induced decrease of TEER” value is on record as “prevented”. For the same compound, in the series with NF-κB [3] (setting [4]), the “inhibition of thrombin-induced miR-146b upregulation” value was “at least 33%” and the “thrombin-induced upregulation of miR-146a” value is reported as “completely blocked”.
For the compound thrombin, the leukocyte adhesion entry in the series with HRECs is “significantly increased”. Besides, in the series on NF-κB activation (setting [5]), the “induction of ICAM-1” value is listed as around 17 fold and the “induction of VCAM-1” value was around 95 fold. Also, in the series on NF-κB activation (HRECs), the “NF-κB downstream genes ICAM1, MCP1 and VCAM1” value is “significantly upregulated”. In the series on NF-κB [3] (thrombin treatment), the “upregulation of miR-146a” value is listed as 122% and the “upregulation of miR-146b” value is reported as 92%.
Consider TNF-α, for which the miR-146a expression entry with NF-κB [1] is reported as “significantly upregulated”. In the series with NF-κB p65, the “NF-κB activation” value is listed as “activated NF-κb”.
